pIC50: −log10 of the molar value. Values joined by “and” are separate entries in the source; they are usually repeats but may differ in a detail not shown here. Equal entries are not always repeated. Where two headings read alike, the source gives them in different places.
Experiments:
17β-HSD1 = biological target: T1, 17β-HSD1 (Homo sapiens, UniProt P14061); test: 17β-HSD Type I activity in T-47D cells (E1→E2); assay type: cell-based; conditions: for inhibition at 10 µM: T47D, read-out: % inhibition of 17β-HSD1 @ 10 μM
T1 construct: was measured in intact cell monolayers of T47D and MDA-MB-231 breast cancer cells respectively; endogenous in cells; host or cells: T-47D human breast cancer cells
T1 sequence (P14061 1-328): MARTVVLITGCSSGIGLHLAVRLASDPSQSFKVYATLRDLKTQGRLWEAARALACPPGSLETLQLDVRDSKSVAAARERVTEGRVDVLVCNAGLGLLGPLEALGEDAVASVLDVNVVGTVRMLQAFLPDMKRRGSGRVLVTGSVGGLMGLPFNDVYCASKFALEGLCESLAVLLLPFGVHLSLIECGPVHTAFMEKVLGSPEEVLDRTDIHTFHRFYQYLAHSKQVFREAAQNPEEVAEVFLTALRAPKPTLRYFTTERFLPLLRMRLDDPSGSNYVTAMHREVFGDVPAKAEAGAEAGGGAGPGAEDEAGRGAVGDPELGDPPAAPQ

17β-HSD2 = biological target: T2, 17β-HSD2 (Homo sapiens, UniProt P37059); test: 17β-HSD Type II activity in MDA-MB-231 cells (E2→E1); assay type: cell-based; conditions: MDA-MB-231 cells, E2→E1; for inhibition at 10 µM: read-out: % inhibition of 17β-HSD2 @ 10 μM
T2 construct: was measured in intact cell monolayers of T47D and MDA-MB-231 breast cancer cells respectively; endogenous in cells; host or cells: MDA-MB-231 human breast cancer cells
T2 sequence (P37059 1-387): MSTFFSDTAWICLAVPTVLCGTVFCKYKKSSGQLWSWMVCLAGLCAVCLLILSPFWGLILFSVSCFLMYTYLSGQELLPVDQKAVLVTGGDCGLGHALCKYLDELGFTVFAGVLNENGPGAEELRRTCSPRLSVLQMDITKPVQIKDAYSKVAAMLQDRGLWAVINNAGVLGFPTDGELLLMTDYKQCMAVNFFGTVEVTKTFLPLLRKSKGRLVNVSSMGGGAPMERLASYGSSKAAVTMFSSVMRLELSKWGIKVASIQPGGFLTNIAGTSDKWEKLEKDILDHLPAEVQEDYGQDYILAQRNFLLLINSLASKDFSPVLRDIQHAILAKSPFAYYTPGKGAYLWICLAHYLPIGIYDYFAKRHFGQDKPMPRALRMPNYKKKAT

[1] = T-47D cells, E1→E2, read-out: IC50 (17β-HSD1)

| SMILES | inhibition at 10 µM (17β-HSD1; T-47D cells, E1→E2) | inhibition at 10 µM (17β-HSD2) | pIC50 (17β-HSD2) | % inhibition of 17β-HSD1 @ 10 μM (17β-HSD1; T-47D cells, E1→E2) | pIC50 (17β-HSD1; [1]) | pIC50 (17β-HSD1) |
| --- | --- | --- | --- | --- | --- | --- |
| CN(C)c1ccc(/C=C2\CC3C4CCc5cc(O)ccc5C4CC[C@]3(C)[C@H]2O)cc1 (stereo in doubt) [compound 511, 16-(4-Dimethylamino-benzylidene)-13-methyl-7,8,9,11,12,13,14,15,16,17-decahydro-6H-cyclopenta[a]phenanthrene-3,17-diol] | 72% | 81% | 5.27 |  |  |  |
| C[C@]12CCC3c4ccc(O)cc4CCC3C1CC(Cc1cccnc1)[C@@H]2O (stereo in doubt) [compound 542, 13-Methyl-16-pyridin-3-ylmethyl-7,8,9,11,12,13,14,15,16,17-decahydro-6H-cyclopenta[a]phenanthrene-3,17-diol] | 87% | 11% |  |  |  |  |
| C[C@]12CCC3c4ccc(O)cc4CCC3C1CC(C#N)C2=O (stereo partly drawn) [compound 207] | 83% | 17% |  | 71% | 5.00 |  |
| COc1cc2c(cc1O)CCC1C2CC[C@]2(C)C(=O)C(C#N)CC12 (stereo partly drawn) [compound 208] | 35% | 4% |  | 31% |  |  |
| C[C@]12CCC3c4ccc(OS(N)(=O)=O)cc4CCC3C1CC(C#N)C2=O (stereo partly drawn) [compound 209] | 71% | 18% |  | 73% | 5.00 |  |
| COc1cc2c(cc1OS(N)(=O)=O)CCC1C2CC[C@]2(C)C(=O)C(C#N)CC12 (stereo partly drawn) [compound 210] | 95% | 8% |  |  | 5.68 |  |
| C[C@]12CCC3c4ccc(O)cc4CCC3C1C/C(=C\c1ccccc1)[C@@H]2O (stereo partly drawn) [compound 313] | 26% | 5% |  |  |  |  |
| C[C@]12CCC3c4ccc(OS(N)(=O)=O)cc4CCC3C1C/C(=C\c1ccccc1)C2=O (stereo partly drawn) [compound 314] | -1% | 1% |  |  |  |  |
| C[C@]12CCC3c4ccc(OS(N)(=O)=O)cc4CCC3C1C/C(=C\c1ccccc1)[C@@H]2O (stereo partly drawn) [compound 315] | 4% | 1% |  |  |  |  |
| C[C@]12CCC3c4ccc(O)cc4CCC3C1C/C(=C\c1ccccn1)C2=O (stereo partly drawn) [compound 319] | 23% | 16% |  |  |  |  |
| C[C@]12CCC3c4ccc(O)cc4CCC3C1C/C(=C\c1cccnc1)C2=O (stereo partly drawn) [compound 320] | 44% | 10% |  |  |  |  |
| C[C@]12CCC3c4ccc(O)cc4CCC3C1C/C(=C\c1ccncc1)C2=O (stereo partly drawn) [compound 321] | 34% | 25% |  |  |  |  |
| C[C@]12CCC3c4ccc(O)cc4CCC3C1C/C(=C\c1ccccn1)[C@@H]2O (stereo partly drawn) [compound 322] | 55% | 17% |  |  |  |  |
| C[C@]12CCC3c4ccc(O)cc4CCC3C1C/C(=C\c1cccnc1)[C@@H]2O (stereo partly drawn) [compound 323] | 52% | 43% |  |  |  |  |
| C[C@]12CCC3c4ccc(O)cc4CCC3C1C/C(=C\c1ccncc1)[C@@H]2O (stereo partly drawn) [compound 324] | 81% | 3% |  | 72% |  | 5.39 |
| C[C@]12CCC3c4ccc(O)cc4CCC3C1C/C(=N/O)C2=O (stereo partly drawn) [compound 327] | 96% | 5% |  | 94% | 5.96 |  |
| COc1cc(/C=C2\CC3C4CCc5cc(O)ccc5C4CC[C@]3(C)C2=O)cc(OC)c1OC (stereo partly drawn) [compound 328] | 24% | -12% |  |  |  |  |
| COc1cc(/C=C2\CC3C4CCc5cc(O)ccc5C4CC[C@]3(C)[C@H]2O)cc(OC)c1OC (stereo partly drawn) [compound 329] |  | 3% |  | 63% and 33% |  |  |
| CCOC(=O)/C(O)=C1\CC2C3CCc4cc(O)ccc4C3CC[C@]2(C)C1=O (stereo partly drawn) [compound 330] | 72% | 7% |  | 77% |  |  |

| SMILES | inhibition at 10 µM (17β-HSD1; T-47D cells, E1→E2) | inhibition at 10 µM (17β-HSD2) | pIC50 (17β-HSD2) | % inhibition of 17β-HSD1 @ 10 μM (17β-HSD1; T-47D cells, E1→E2) | pIC50 (17β-HSD1; [1]) | pIC50 (17β-HSD1) |
| --- | --- | --- | --- | --- | --- | --- |
| C[C@]12CCC3c4ccc(OS(N)(=O)=O)cc4CCC3C1C/C(=N/O)C2=O (stereo partly drawn) [compound 337] | 47% | 8% |  |  |  |  |
| C[C@]12CCC3c4ccc(O)cc4CCC3C1CC(=N/O)/C2=N\O (stereo partly drawn) [compound 338] | 55% | -2% |  |  |  |  |
| C[C@]12CCC3c4ccc(O)cc4C(=O)CC3C1CCC2=O (stereo partly drawn) [compound 416] | 98% | 8% |  |  | 6.47 |  |
| C[C@]12CCC3c4ccc(OS(N)(=O)=O)cc4CCC3C1C/C(=C\c1ccncc1)C2=O (stereo partly drawn) [compound 452] | 28% | 11% |  |  |  |  |
| C[C@]12CCC3c4ccc(OS(N)(=O)=O)cc4CCC3C1C/C(=C\c1cccnc1)C2=O (stereo partly drawn) [compound 453] | 22% | 10% |  |  |  |  |
| C[C@]12CCC3c4ccc(O)cc4/C(=N\O)CC3C1CC/C2=N\O (stereo partly drawn) [compound 454] |  | 27% |  |  | 5.72 |  |
| C[C@]12CCC3c4ccc(O)cc4CCC3C1C/C(=C\c1ccco1)C2=O (stereo partly drawn) [compound 474] | 26% | 17% |  |  |  |  |
| C[C@]12CCC3c4ccc(O)cc4CCC3C1C/C(=C\c1cccs1)C2=O (stereo partly drawn) [compound 475] | 67% | 14% |  |  |  |  |
| CN(C)c1ccc(/C=C2\CC3C4CCc5cc(O)ccc5C4CC[C@]3(C)C2=O)cc1 (stereo partly drawn) [compound 477, 16-(4-Dimethylamino-benzylidene)-3-hydroxy-13-methyl-6,7,8,9,11,12,13,14,15,16-decahydro-cyclopenta[a]phenanthron-17-one] | 72% | 13% |  |  |  |  |
| C[C@]12CCC3c4ccc(O)cc4CCC3C1C/C(=C\c1ccc(C#N)cc1)C2=O (stereo partly drawn) [compound 478] | 39% | 18% |  |  |  |  |
| C[C@]12CCC3c4ccc(O)cc4CCC3C1C/C(=C/O)C2=O (stereo partly drawn) [compound 486] | 97% | 15% |  |  | 6.96 |  |
| C[C@]12CCC3c4ccc(O)cc4CCC3C1C/C(=C\c1cccs1)[C@@H]2O (stereo partly drawn) [compound 507] | 41% | 25% |  |  |  |  |
| C[C@]12CCC3c4ccc(O)cc4CCC3C1C/C(=C\c1ccc(C#N)cc1)[C@@H]2O (stereo partly drawn) [compound 510] | 57% | 31% |  |  |  |  |
| CO/N=C1\CC2C(CC[C@]3(C)/C(=N/OC)CCC23)c2ccc(O)cc21 (stereo partly drawn) [compound 515] | 15% | 31% |  |  |  |  |
| C[C@]12CCC3c4ccc(O)cc4CCC3C1CC(Cc1ccncc1)[C@@H]2O (stereo partly drawn) [compound 543, 13-Methyl-16-pyridin-4-ylmethyl-7,8,9,11,12,13,14,15,16,17-decahydro-6H-cyclopenta[a]phenanthrene-3,17-diol] | 84% | 37% |  |  |  |  |
| C[C@]12CCC3c4ccc(O)cc4CCC3C1CC(C#N)[C@@H]2O (stereo partly drawn) [compound 561] | 56% | 4% |  |  |  |  |
| C[C@]12CCC3c4ccc(O)cc4CCC3C1CC(Cc1ccccn1)[C@@H]2O (stereo partly drawn) [compound 567, 13-Methyl-16-pyridin-2-ylmethyl-7,8,9,11,12,13,14,15,16,17-decahydro-6H-cyclopenta[□]phenanthrene-3-17-diol] | 88% | 11% |  |  |  |  |
| COC(=O)C1CC2C3CCc4cc(O)ccc4C3CC[C@]2(C)C1=O (stereo partly drawn) [compound 568] | 69% | 9% |  |  |  |  |
| CC(C)/C=C1\CC2C3CCc4cc(O)ccc4C3CC[C@]2(C)C1=O (stereo partly drawn) [compound 571] | 71% | 18% |  |  |  |  |
